According to patent US5189169A (priority 1991, dated 1993):
Values joined by “and” are separate entries in the source; they are usually repeats but may differ in a detail not shown here. Equal values may be shown once.

Legend:
[1] = tested on: three grassy weeds (wild oat, watergrass, foxtail); design: species or system Avena fatua, Echinochloa crusgalli, Setaria viridis; conditions: in vivo
[2] = tested on: three broadleaf weeds (morning glory, mustard, velvetleaf); design: species or system Ipomoea purpurea, Brassica kaber, Abutilon theophrasti; conditions: in vivo
yellow nutsedge [3] = tested on: yellow nutsedge; design: species or system Cyperus esculentus; conditions: in vivo
[4] = tested on: three grassy weeds (wild oat, watergrass, foxtail); design: species or system Avena fatua, Echinochloa crusgalli, Setaria viridis; conditions: in vivo; remark: listed apart in the source
yellow nutsedge [5] = tested on: yellow nutsedge; design: species or system Cyperus esculentus; conditions: in vivo; remark: listed apart in the source
[6] = tested on: three broadleaf weeds (morning glory, mustard, velvetleaf); design: species or system Ipomoea purpurea, Brassica kaber, Abutilon theophrasti; conditions: in vivo; remark: listed apart in the source
[7] = tested on: four grassy weeds: wild oat, watergrass, green foxtail and crabgrass; test: Pre-emergence herbicidal activity, grassy weeds (Table III); format: in vivo; conditions: 2.24 kg/ha, 2-3 weeks after treatment
Experimental: (§1) The herbicidal effect was observed by comparing the extent of weed control in test flats treated with the compounds against that occurring in similar non-treated control flats. All were applied at 3.57 lb/A (4 kg/ha) to pre-emergence and post-emergence screening flats. An 80 gal/A (748.3 1/ha) spray volume was utilized. Post-emergence flats were seeded 12 days prior to treatment. Pre-emergence flats were seeded one day prior to treatment. Overhead watering of pre-emergence flats and soil surface watering of post-emergence flats, so as to avoid wetting the foliage, were carried out for the duration of the test.
(§2) Weed seeds were planted in a flat at a seed depth of 0.5 inch (1.3 cm). Soil for flats was prepared using loam soil fortified with 17-17-17 fertilizer (N-P2 O5 -K2 O on a weight basis) and Captan 80W fungicide. The test weeds were as follows:
(§3) The spray solutions were prepared by dissolving 240 mg of test compound in 20 ml of acetone containing 1% polyoxyethylene sorbitan monolaurate emulsifier, then adding 20 ml of water to the resulting solution. The spray solutions were applied using a linear spray table. Pre-emergence flats are raised to the level of the post-emergence foliage canopy by setting the flats on a wooden block.
(§4) The degree of weed control was visually assessed and recorded as percentage control compared to the growth of the same species in an untreated check flat of the same age. The rating scale ranges from 0 to 100%, where 0 equals no effect with plant growth equal to the untreated control, and 100 equals complete kill.
(§5) Compounds 68 to 145 in Table I were tested generally similarly to Compounds No. 1 to 67 with the following differences: The rate of application was 2 lb/acre (2.24 kg/ha), no 6-day evaluations were made, and the weeds were:
(§6) Four grassy weeds: wild oat, watergrass, green foxtail and crabgrass (Digitaria sanguinalis);
(§7) Ratings were taken 2-3 weeks after treatment.

[8] = tested on: three broadleaf weeds: wild mustard, redroot pigweed and curly dock; test: Pre-emergence herbicidal activity, broadleaf weeds (Table III); format: in vivo, Brassica kaber, Amaranthus retroflexus, Rumex crispus; conditions: 2.24 kg/ha, 2-3 weeks after treatment
Experimental: as §1, §2, §3, §4, §5
(§8) Three broadleaf weeds: wild mustard, redroot pigweed (Amaranthus retroflexus) and curly dock (Rumex crispus).
as §7

[9] = tested on: four grassy weeds: wild oat, watergrass, green foxtail and crabgrass; test: Post-emergence herbicidal activity, grassy weeds (Table III); format: in vivo; conditions: 2.24 kg/ha, 2-3 weeks after treatment
Experimental: as §1, §2, §3, §4, §5, §6, §7

[10] = tested on: three broadleaf weeds: wild mustard, redroot pigweed and curly dock; test: Post-emergence herbicidal activity, broadleaf weeds (Table III); format: in vivo, Brassica kaber, Amaranthus retroflexus, Rumex crispus; conditions: 2.24 kg/ha, 2-3 weeks after treatment
Experimental: as §1, §2, §3, §4, §5, §8, §7

Structure (SMILES)	% Control, Pre-emergence, GR avg. [1] [%]	% Control, Pre-emergence, BL avg. [2] [%]	% Control, Pre-emergence, NS (yellow nutsedge [3]) [%]	% Control, Post-emergence, GR avg. [4]	% Control, Post-emergence, NS (yellow nutsedge [5])	% Control, Post-emergence, BL avg. [6]	% Control, Pre-Emergence, GR Avg. [7] [%]	% Control, Pre-Emergence, BL Avg. [8] [%]	% Control, Post-Emergence, GR Avg. [9] [%]	% Control, Post-Emergence, BL Avg. [10] [%]
CCCSP(=O)(N(CC)CC)N(C(C)C)C(C)C (centres unmarked) [Compound 29]	0	0	0	10% and 7%	0%	–	–	–	–	–
CCCSP(=O)(N(CCC)CCC)N(C)c1c(F)c(F)cc(F)c1F (centres unmarked) [Compound 53]	0	10	0	75% and 43%	0%	100%	–	–	–	–
CCCSP(=O)(N(CCC)CCC)N(C)c1ccc(Cl)cc1Cl (centres unmarked) [Compound 38]	0	0	0	40%	0%	100%	–	–	–	–
CCCSP(=O)(N(CCC)CCC)N(C)c1ccc(Br)cc1C (centres unmarked) [Compound 39]	0	0	0	67%	80%	93%	–	–	–	–
CCCSP(=O)(N(CCC)CCC)N(C)c1ccc(Br)cc1Br (centres unmarked) [Compound 37]	0	0	0	20% and 10%	0%	80% and 83%	–	–	–	–
CCCN(CCC)P(=O)(SC(C)(C)C)N(CCC)CCC [Compound 3]	0	100	0	80% and 70%	5% and 0%	80% and 100%	–	–	–	–
CCCSP(=O)(N(CCC)CCC)N(C)c1cc(F)c(F)cc1F (centres unmarked) [Compound 48]	0	0	0	80% and 40%	0%	90% and 80%	–	–	–	–
CCCSP(=O)(N(CCC)CCC)N(C)c1ccc(Cl)c(Cl)c1 (centres unmarked) [Compound 20]	0	0	0	20% and 13%	5% and 0%	50% and 67%	–	–	–	–
CCCSP(=O)(N(CCC)CCC)N(C)c1ccc(F)cc1 (centres unmarked) [Compound 32]	0	0	0	10% and 3%	0%	–	–	–	–	–
CCCSP(=O)(N(CCC)CCC)N(CCC)c1ccc(C(C)C)cc1 (centres unmarked) [Compound 59]	0	0	0	10% and 6%	0%	50% and 55%	–	–	–	–
CCCSP(=O)(N(CC)CCC(C)C)N(CC)CCC(C)C [Compound 51]	0	8	0	70% and 45%	0%	95% and 100%	–	–	–	–
CCCSP(=O)(N(CCC)CCC)N(C)c1ccc(F)c(Cl)c1 (centres unmarked) [Compound 31]	0	0	0	10% and 5%	0%	–	–	–	–	–
CCCCN(CCCC)P(=O)(SCCC)N(C(C)C)C(C)C (centres unmarked) [Compound 28]	0	0	0	10% and 7%	0%	–	–	–	–	–
CCCSP(=O)(N(CCC)CCC)N(C)c1ccccc1F (centres unmarked) [Compound 33]	0	0	0	5% and 0%	0%	–	–	–	–	–
CCCN(CCC)P(=O)(SC1CCCCC1)N(CCC)CCC [Compound 118]	–	–	–	–	–	–	0	0	30	63
